Reference: paper PMC12446476 (Nature Communications, 2025)
≈ marks a conversion by molar mass, not a printed value. Where “and” joins values, the source holds several entries; their conditions need not be identical. Identical values can stand only once. Like-named read-outs stand apart in the source and are kept apart here.

Tests used:
[1] = test system: Salmonella typhimurium (TA1535, TA1537, TA98 and TA100); assay type: cell-based
Method: (§1) Ames assays were performed using four strains of Salmonella typhimurium (TA1535, TA1537, TA98 and TA100) and a single strain of E. coli (WRP2 uvrA) in the presence and absence of S9 tissue homogenate. Dose levels (µg/plate) up to 4000 were assessed for WP2 uvrA and TA98, 500 for TA1535, 250 for TA1537 and 62.5 for TA100.

E. coli WP2 uvrA = assay: Ames assay, E. coli strain; assay type: cell-based
Method: as §1

[2] = target: recombinant NgFabI protein (Neisseria gonorrhoeae, UniProt A0ACH0F547); assay: biochemical
Method: FabI activity was monitored by measuring NADH consumption. […] To initiate reactions, 50 µM NADH was added, and absorbance was monitored at 340 nm every 12 s for a total of 40 min using a Spectramax Plus 384 plate reader (Molecular Devices) at a controlled temperature of 30 °C. Data were analysed using the XLfit Microsoft Excel plugin (version 5.5). IC50 values were determined using a logistic sigmoid curve-fitting of the inhibitor dose response curves.

N. gonorrhoeae [3] = assay: MIC determination, broth microdilution (baseline for liquid-based assays); assay type: cell-based, Neisseria gonorrhoeae; settings: for MIC: Neisseria gonorrhoeae
Text: The 2024 WHO N. gonorrhoeae reference strains were used for quality control. Only whole MIC doubling dilutions are reported. Clinical breakpoints or the epidemiological cutoff (ECOFF, to indicate azithromycin resistance) from EUCAST (v14.0, https://www.eucast.org/clinical_breakpoints) were used to classify isolates as antimicrobial susceptible or resistant. […] Two times the standard inoculum defined by CLSI was used to establish consistent growth in untreated control samples for some strains. In vitro time-kill assays were performed according to CLSI guidelines[65] using Columbia Broth (BD Difco) supplemented with 1% IsoVitaleX Enrichment (BD). Viable bacterial counts were generated by plating 10-fold serially diluted samples on GC agar plates containing 1% IsoVitaleX Enrichment (BD).

S. aureus = assay: MIC determination for S. aureus, broth dilution; assay type: cell-based; settings: Staphylococcus aureus, ATCC29213; S. aureus ATCC 29213
N. gonorrhoeae [4] = assay: In vitro selection of mutants with reduced susceptibility; assay type: cell-based, Neisseria gonorrhoeae
Method: N. gonorrhoeae strains were grown overnight on chocolate agar plates, as described above. […] Plates were incubated at 35 ± 2 °C in a humid 5% CO2–enriched atmosphere for 48–72 h.

[5] = TA98, without S9, 62.5 µg/plate
[6] = TA100, without S9, 15.6 µg/plate
[7] = TA100, without S9, 31.3 µg/plate
[8] = TA1535, without S9, 10 µg/plate
[9] = TA1535, without S9, 15.6 µg/plate
[10] = TA1535, without S9, 31.3 µg/plate
[11] = TA1535, without S9, 62.5 µg/plate
[12] = TA1535, without S9, 250 µg/plate
[13] = TA1537, without S9, 10 µg/plate
[14] = TA1537, without S9, 15.6 µg/plate
[15] = TA1537, without S9, 31.3 µg/plate
[16] = TA1537, without S9, 62.5 µg/plate

Chain of recombinant NgFabI protein (A0ACH0F547 entry or part of it): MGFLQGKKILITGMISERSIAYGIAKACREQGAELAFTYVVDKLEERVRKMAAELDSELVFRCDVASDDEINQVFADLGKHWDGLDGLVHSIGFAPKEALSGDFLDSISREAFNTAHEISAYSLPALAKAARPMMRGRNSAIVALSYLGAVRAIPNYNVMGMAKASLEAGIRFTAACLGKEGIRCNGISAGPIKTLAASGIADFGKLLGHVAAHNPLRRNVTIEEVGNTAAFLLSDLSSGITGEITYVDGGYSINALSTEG

Cc1c(CN(C)C(=O)/C=C/c2cnc3c(c2)N[C@H](C)[C@H](OP(=O)([O-])[O-])C(=O)N3)oc2ccccc12.[Na+].[Na+] [Debio 1453 P]
Ames bacterial mutation assessment, Mean ([1]; TA98, with S9, 62.5 µg/plate): 34
Colony count ([1]; TA98, with S9, 62.5 µg/plate): 35 and 36 and 30
Ames bacterial mutation assessment, Mean ([1]; TA98, with S9, 250 µg/plate): 26
Colony count ([1]; TA98, with S9, 250 µg/plate): 28 and 26 and 23
Ames bacterial mutation assessment, Mean ([1]; TA98, with S9, 500 µg/plate): 12
Colony count ([1]; TA98, with S9, 500 µg/plate): 14 and 12 and 11
Ames bacterial mutation assessment, Mean [1, 5]: 32
Colony count [1, 5]: 36 and 29 and 32
Ames bacterial mutation assessment, Mean ([1]; TA98, without S9, 250 µg/plate): 22
Colony count ([1]; TA98, without S9, 250 µg/plate): 24 and 21 and 20
Ames bacterial mutation assessment, Mean ([1]; TA98, without S9, 500 µg/plate): 12
Colony count ([1]; TA98, without S9, 500 µg/plate): 12 and 13 and 10
Ames bacterial mutation assessment, Mean ([1]; TA100, with S9, 5 µg/plate): 141
Colony count ([1]; TA100, with S9, 5 µg/plate): 143 and 140 and 141
Ames bacterial mutation assessment, Mean ([1]; TA100, with S9, 10 µg/plate): 128
Colony count ([1]; TA100, with S9, 10 µg/plate): 123 and 133 and 128
Ames bacterial mutation assessment, Mean ([1]; TA100, with S9, 15.6 µg/plate): 60
Colony count ([1]; TA100, with S9, 15.6 µg/plate): 57 and 59 and 64
Ames bacterial mutation assessment, Mean ([1]; TA100, with S9, 31.3 µg/plate): 30
Colony count ([1]; TA100, with S9, 31.3 µg/plate): 30 and 29 and 32
Ames bacterial mutation assessment, Mean ([1]; TA100, without S9, 5 µg/plate): 146
Colony count ([1]; TA100, without S9, 5 µg/plate): 146 and 143 and 149
Ames bacterial mutation assessment, Mean ([1]; TA100, without S9, 10 µg/plate): 134
Colony count ([1]; TA100, without S9, 10 µg/plate): 125 and 145 and 131
Ames bacterial mutation assessment, Mean [1, 6]: 59
Colony count [1, 6]: 66 and 54 and 58
Ames bacterial mutation assessment, Mean [1, 7]: 33
Colony count [1, 7]: 32 and 31 and 36
Ames bacterial mutation assessment, Mean ([1]; TA1535, with S9, 10 µg/plate): 18
Colony count ([1]; TA1535, with S9, 10 µg/plate): 19 and 16
Ames bacterial mutation assessment, Mean ([1]; TA1535, with S9, 15.6 µg/plate): 15
Colony count ([1]; TA1535, with S9, 15.6 µg/plate): 18 and 14
Ames bacterial mutation assessment, Mean ([1]; TA1535, with S9, 31.3 µg/plate): 16
Colony count ([1]; TA1535, with S9, 31.3 µg/plate): 17 and 16 and 14
Ames bacterial mutation assessment, Mean ([1]; TA1535, with S9, 62.5 µg/plate): 14
Colony count ([1]; TA1535, with S9, 62.5 µg/plate): 15 and 12 and 16
Ames bacterial mutation assessment, Mean ([1]; TA1535, with S9, 250 µg/plate): 6
Colony count ([1]; TA1535, with S9, 250 µg/plate): 5 and 7
Ames bacterial mutation assessment, Mean ([1]; TA1535, with S9, 500 µg/plate): 5
Colony count ([1]; TA1535, with S9, 500 µg/plate): 6 and 5
Ames bacterial mutation assessment, Mean [1, 8]: 19
Colony count [1, 8]: 18 and 21
Ames bacterial mutation assessment, Mean [1, 9]: 17
Colony count [1, 9]: 17 and 16
Ames bacterial mutation assessment, Mean [1, 10]: 13
Colony count [1, 10]: 14 and 13
Ames bacterial mutation assessment, Mean [1, 11]: 11
Colony count [1, 11]: 11 and 12
Ames bacterial mutation assessment, Mean [1, 12]: 6
Colony count [1, 12]: 6 and 8 and 4
Ames bacterial mutation assessment, Mean ([1]; TA1535, without S9, 500 µg/plate): 4
Ames bacterial mutation assessment, Mean ([1]; TA1537, with S9, 10 µg/plate): 17
Colony count ([1]; TA1537, with S9, 10 µg/plate): 16 and 19
Ames bacterial mutation assessment, Mean ([1]; TA1537, with S9, 15.6 µg/plate): 18
Colony count ([1]; TA1537, with S9, 15.6 µg/plate): 19 and 16 and 18
Ames bacterial mutation assessment, Mean ([1]; TA1537, with S9, 31.3 µg/plate): 10
Colony count ([1]; TA1537, with S9, 31.3 µg/plate): 10 and 11 and 9
Ames bacterial mutation assessment, Mean [1, 13]: 19
Colony count [1, 13]: 17 and 20 and 19
Ames bacterial mutation assessment, Mean [1, 14]: 18
Colony count [1, 14]: 19 and 20 and 16
Ames bacterial mutation assessment, Mean [1, 15]: 15
Colony count [1, 15]: 16 and 14
Ames bacterial mutation assessment, Mean [1, 16]: 7
Colony count [1, 16]: 8 and 6
Ames assay result ([1]; presence and absence of S9, highest concentrations tested): non-mutagenic
Ames bacterial mutation assessment, Mean (E. coli WP2 uvrA; with S9, 62.5 µg/plate): 32
Colony count (E. coli WP2 uvrA; with S9, 62.5 µg/plate): 33 and 34 and 28
Ames bacterial mutation assessment, Mean (E. coli WP2 uvrA; with S9, 250 µg/plate): 31
Colony count (E. coli WP2 uvrA; with S9, 250 µg/plate): 33 and 31 and 30
Ames bacterial mutation assessment, Mean (E. coli WP2 uvrA; with S9, 500 µg/plate): 34
Colony count (E. coli WP2 uvrA; with S9, 500 µg/plate): 34 and 36 and 31
Ames bacterial mutation assessment, Mean (E. coli WP2 uvrA; with S9, 1000 µg/plate): 28
Colony count (E. coli WP2 uvrA; with S9, 1000 µg/plate): 26 and 30 and 28
Ames bacterial mutation assessment, Mean (E. coli WP2 uvrA; with S9, 2000 µg/plate): 26
Colony count (E. coli WP2 uvrA; with S9, 2000 µg/plate): 27 and 26 and 25
Ames bacterial mutation assessment, Mean (E. coli WP2 uvrA; with S9, 4000 µg/plate): 25
Colony count (E. coli WP2 uvrA; with S9, 4000 µg/plate): 25 and 26 and 23
Ames bacterial mutation assessment, Mean (E. coli WP2 uvrA; without S9, 62.5 µg/plate): 32
Colony count (E. coli WP2 uvrA; without S9, 62.5 µg/plate): 31 and 30 and 36
Ames bacterial mutation assessment, Mean (E. coli WP2 uvrA; without S9, 250 µg/plate): 26
Colony count (E. coli WP2 uvrA; without S9, 250 µg/plate): 26 and 28 and 25
Ames bacterial mutation assessment, Mean (E. coli WP2 uvrA; without S9, 500 µg/plate): 25
Colony count (E. coli WP2 uvrA; without S9, 500 µg/plate): 21 and 26 and 27
Ames bacterial mutation assessment, Mean (E. coli WP2 uvrA; without S9, 1000 µg/plate): 24
Colony count (E. coli WP2 uvrA; without S9, 1000 µg/plate): 25 and 24
Ames bacterial mutation assessment, Mean (E. coli WP2 uvrA; without S9, 2000 µg/plate): 24
Colony count (E. coli WP2 uvrA; without S9, 2000 µg/plate): 21 and 25
Ames bacterial mutation assessment, Mean (E. coli WP2 uvrA; without S9, 4000 µg/plate): 22
Colony count (E. coli WP2 uvrA; without S9, 4000 µg/plate): 23 and 18 and 24

Cc1c(CN(C)C(=O)/C=C/c2cnc3c(c2)N[C@H](C)[C@H](O)C(=O)N3)oc2ccccc12 [Debio 1453]
IC50 [2]: 600 pM
MIC, broth microdilution (N. gonorrhoeae [3]; 6804): 0.06 µg/mL (≈ 0.143 µM)
MIC, broth microdilution (N. gonorrhoeae [3]; AR Bank0175): 0.06 µg/mL (≈ 0.143 µM)
MIC, broth microdilution (N. gonorrhoeae [3]; AR Bank0179): 0.06 µg/mL (≈ 0.143 µM)
MIC (N. gonorrhoeae [3]; ATCC49226, read-out: MIC, broth microdilution, ATCC 49226): 0.125 µg/mL (≈ 0.297 µM)
MIC (N. gonorrhoeae [3]; ATCC700825, ATCC 700825, read-out: MIC, broth microdilution): 0.03 µg/mL (≈ 0.0713 µM)
MIC (N. gonorrhoeae [3]; read-out: MIC, broth microdilution, WHO V): 0.125 µg/mL (≈ 0.297 µM)
MIC (N. gonorrhoeae [3]; read-out: MIC, broth microdilution, WHO X): 0.125 µg/mL (≈ 0.297 µM)
MIC (N. gonorrhoeae [3]; read-out: MIC, broth microdilution, WHO Y): 0.125 µg/mL (≈ 0.297 µM)
MIC (N. gonorrhoeae [3]; read-out: MIC, broth microdilution, WHO Z): 0.125 µg/mL (≈ 0.297 µM)
MIC (N. gonorrhoeae [3]; 6926, read-out: MIC, broth microdilution): 0.06 µg/mL (≈ 0.143 µM)
MIC (S. aureus): 0.008 µg/mL (≈ 0.019 µM)
Mutants (colonies) (N. gonorrhoeae [4]; 6804, 4x MIC): 2
Mutants (colonies) (N. gonorrhoeae [4]; 6804, 8x MIC): 0
Mutants (colonies) (N. gonorrhoeae [4]; 6804, 16x MIC): 0
Mutants (colonies) (N. gonorrhoeae [4]; 6926, 4x MIC): 1
Mutants (colonies) (N. gonorrhoeae [4]; 6926, 8x MIC): 0
Mutants (colonies) (N. gonorrhoeae [4]; 6926, 16x MIC): 0
Mutants (colonies) (N. gonorrhoeae [4]; ATCC 700825, 16x MIC): 0
Mutants (colonies) (N. gonorrhoeae [4]; WHO Z, 4x MIC): 1
Mutants (colonies) (N. gonorrhoeae [4]; WHO Z, 8x MIC): 0
Mutants (colonies) (N. gonorrhoeae [4]; WHO Z, 16x MIC): 0
